# Data from patent US20110060044A1, “ALIPHATIC ACID-CONTAINING N-HALOGENATED AMINO ACID FORMULATIONS” (ALCON RESEARCH, LTD., priority 2007, published 2011).
# “Also recorded” adds a separate entry of the source.
# Assays:
# S. aureus = test: Antimicrobial activity (time-kill viability) evaluation with S. aureus; format: cell-based; conditions: measured by viable cells per mL, Table 1 / FIG. 1
# Method: The antimicrobial activity of the formulations according to embodiments of the present invention were evaluated by a standard microbiological analysis. […] For the evaluation, bacterial and fungal isolates were grown overnight on appropriate agar media as source of fresh cells. A suspension of these fresh cells was prepared in saline at approximately 1×10^8 cfu/mL. These suspensions were added directly to the test agents (various solutions of sodium 2,2-dimethyl-N,N-dichlorotaurine and control solutions). The initial concentration of cells in the test agent solutions was approximately 1×10^6 cfu/mL. The exposure of microorganisms to the test agent was conducted at room temperature for up to 60 minutes. At selected times, an aliquot was withdrawn and diluted into phosphate buffered saline at 4° C. Viability was determined following serial dilution and filtration onto Milliflex cassettes.
# C. albicans = test: Antimicrobial activity (time-kill viability) evaluation with C. albicans; format: cell-based; conditions: measured by viable cells per mL, Table 2 / FIG. 2
# Method: The antimicrobial activity of the formulations according to embodiments of the present invention were evaluated by a standard microbiological analysis. The results of this evaluation are summarized in Tables 1 and 2 below and are shown graphically in FIGS. 1 and 2. For the evaluation, bacterial and fungal isolates were grown overnight on appropriate agar media as source of fresh cells. A suspension of these fresh cells was prepared in saline at approximately 1×10^8 cfu/mL. These suspensions were added directly to the test agents (various solutions of sodium 2,2-dimethyl-N,N-dichlorotaurine and control solutions). The initial concentration of cells in the test agent solutions was approximately 1×10^6 cfu/mL. The exposure of microorganisms to the test agent was conducted at room temperature for up to 60 minutes. At selected times, an aliquot was withdrawn and diluted into phosphate buffered saline at 4° C. Viability was determined following serial dilution and filtration onto Milliflex cassettes.
structure (smiles),measurement,setting,value
"CC(C)(CS(=O)(=O)O)N(Cl)Cl [2,2-dimethyl-N,N-dichlorotaurine]",anti-infective (antimicrobial) activity when the formulation contained sodium acetate,S. aureus,dramatically improved; also recorded: increased
same,anti-infective (antimicrobial) activity when the formulation contained sodium acetate,C. albicans,dramatically improved; also recorded: increased
